Results: patent US4214093A, “Amino- or guanidino-1,2,3,4-tetrahydro-1-naphthoic esters” (Torii & Co., Ltd., priority 1977, dated 1980)
pIC50: −log10 of the molar value. Where a name gives a salt, the structure may show the parent alone. Read-outs that look alike come from different tables or passages of the source.

How the values were obtained:
Type in all cases: biochemical
Bovine Thrombin = Bovine Thrombin (Bos taurus, UniProt P00735); experiment: Inhibitory effect on ester-hydrolyzing activity of bovine thrombin (TAMe substrate); conditions: for inhibition at 1000 µM: at 10^-3 M, in vitro, TAMe, read-out: Thrombin percent inhibition; for inhibitory activity on thrombin: text of Examples
Protocol: The enzyme-inhibitory activities in vitro of the compounds of this invention were measured by the following procedure according to the method of M. Muramatsu et al. [M. Muramatsu, T. Onishi, S. Makino, Y. Hayashi and S. Fujii: J. Biochem., 58, 214 (1965)]
To 0.1 ml of trypsin (5 μg/ml) were added 0.5 ml of 0.1 M borate buffer solution (pH 8.6) containing 10 mM CaCl2, and 0.1 ml of a varying concentration of an inhibitor solution, and preincubation was carried out at 37° C. for 5 minutes. Then, 10 μmoles of the substrate, TAMe (tosylarginine methyl ester), was added, and incubation was preformed at 37° C. for 30 minutes.
After the incubation, 1.5 ml of 2 M alkaline hydroxylamine was added and thoroughly mixed, and allowed to stand at room temperature for 15 minutes. Then, 1.0 ml of each of 18% trichloroacetic acid, 4 N HCl and 10% FeCl3 was added and thoroughly mixed. If necessary, the mixture was centrifuged at 3,000 rpm for 10 minutes, and the absorbance of the supernatant was measured at 530 nm.
It was measured by using 0.4 ml of bovine thrombin […], 0.02 M sodium phosphate buffer solution (pH 7.4) and TAMe as substrate following the method described in (1).

Human Plasmin = Human Plasmin (Homo sapiens, UniProt P00747); experiment: Inhibitory effect on ester-hydrolyzing activity of human plasmin (TAMe substrate); conditions: for inhibition at 1000 µM: at 10^-3 M, read-out: Plasmin percent inhibition; for inhibition at 1000 µM / pIC50: in vitro, TAMe; for pIC50: Table 4 bracketed value, read-out: Plasmin ID50; for inhibitory activity on plasmin: text of Examples
Protocol: The enzyme-inhibitory activities in vitro of the compounds of this invention were measured by the following procedure according to the method of M. Muramatsu et al. [[…]. […] After the incubation, 1.5 ml of 2 M alkaline hydroxylamine was added and thoroughly mixed, and allowed to stand at room temperature for 15 minutes. […] It was measured by using 0.1 ml of plasmin (generated by activation of plasminogen with streptokinase) and TAMe as substrate following the method described in (1).

Human Cl Esterase = molecular target: T1, Human Cl Esterase (Homo sapiens, UniProt P09871); experiment: Inhibitory effect on ester-hydrolyzing activity of human Cl esterase (ATEe substrate); conditions: for inhibition at 1000 µM: read-out: Cl-esterase percent inhibition; for pIC50: pH 7.4, Table 4 bracketed value, read-out: Cl-esterase ID50; for inhibitory activity on Cl-esterase: text of Examples
T1 sequence (P09871 438-688 limits assumed): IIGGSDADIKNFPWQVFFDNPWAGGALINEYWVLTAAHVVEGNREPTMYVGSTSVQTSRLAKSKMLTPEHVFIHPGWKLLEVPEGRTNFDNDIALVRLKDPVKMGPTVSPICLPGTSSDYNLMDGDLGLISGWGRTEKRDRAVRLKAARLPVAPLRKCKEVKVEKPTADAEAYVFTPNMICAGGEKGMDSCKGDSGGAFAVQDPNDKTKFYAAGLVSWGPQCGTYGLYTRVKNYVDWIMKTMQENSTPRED
T1 sequence (P09871 16-437 partner limits assumed): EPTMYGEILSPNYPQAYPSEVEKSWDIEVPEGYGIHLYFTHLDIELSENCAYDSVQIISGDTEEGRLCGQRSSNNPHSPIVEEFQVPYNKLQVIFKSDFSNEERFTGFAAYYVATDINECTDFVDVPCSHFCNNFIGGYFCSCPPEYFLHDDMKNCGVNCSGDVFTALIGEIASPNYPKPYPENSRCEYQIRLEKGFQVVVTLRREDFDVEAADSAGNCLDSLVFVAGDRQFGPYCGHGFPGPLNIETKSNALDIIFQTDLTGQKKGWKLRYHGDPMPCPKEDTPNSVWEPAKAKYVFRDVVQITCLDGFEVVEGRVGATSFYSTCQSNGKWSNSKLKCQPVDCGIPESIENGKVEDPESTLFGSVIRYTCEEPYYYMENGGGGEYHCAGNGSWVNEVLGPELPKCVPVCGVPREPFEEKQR
Protocol: It was measured by using 0.1 ml of Cl esterase, 0.1 ml of 0.02 M sodium phosphate buffer solution (pH 7.4 ) and 10 μmoles of ATEe (acetyltyrosine ethyl ester) as substrate following the method described in (1).

Human Plasma Kallikrein = Human Plasma Kallikrein (Homo sapiens, UniProt P03952); experiment: Inhibitory effect on ester-hydrolyzing activity of human plasma kallikrein (TAMe substrate); conditions: for inhibition at 1000 µM: read-out: Kallikrein percent inhibition; for pIC50: Table 4 bracketed value, read-out: Kallikrein ID50; for inhibitory activity on kallikrein: text of Examples
Protocol: (§1) The enzyme-inhibitory activities in vitro of the compounds of this invention were measured by the following procedure according to the method of M. Muramatsu et al. [[…]. […] After the incubation, 1.5 ml of 2 M alkaline hydroxylamine was added and thoroughly mixed, and allowed to stand at room temperature for 15 minutes.

Trypsin = molecular target: T2, Trypsin (Bos taurus, UniProt P00760); experiment: Inhibitory effect on ester-hydrolyzing activity of trypsin (TAMe substrate); conditions: for inhibition at 1000 µM: read-out: Trypsin percent inhibition
T2 sequence (P00760 24-246): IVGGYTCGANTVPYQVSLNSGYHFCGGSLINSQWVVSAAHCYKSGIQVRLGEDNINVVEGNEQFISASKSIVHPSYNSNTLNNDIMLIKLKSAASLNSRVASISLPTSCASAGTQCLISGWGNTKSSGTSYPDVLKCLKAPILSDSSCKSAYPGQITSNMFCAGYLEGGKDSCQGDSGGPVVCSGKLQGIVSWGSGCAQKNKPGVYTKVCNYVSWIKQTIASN
Protocol: as §1

[1] = in vitro, TAMe, pH 8.6, 37° C., Table 4 bracketed value, read-out: Trypsin ID50

Sequence of Human Plasma Kallikrein (P03952 391-638 limits assumed): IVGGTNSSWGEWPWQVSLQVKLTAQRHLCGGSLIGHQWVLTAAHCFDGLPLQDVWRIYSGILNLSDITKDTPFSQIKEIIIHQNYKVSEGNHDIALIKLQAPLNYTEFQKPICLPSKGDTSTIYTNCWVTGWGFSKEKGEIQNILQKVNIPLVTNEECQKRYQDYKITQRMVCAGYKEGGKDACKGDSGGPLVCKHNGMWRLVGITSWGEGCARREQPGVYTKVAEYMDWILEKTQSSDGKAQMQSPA
Sequence of Human Plasma Kallikrein (P03952 20-390 partner limits assumed): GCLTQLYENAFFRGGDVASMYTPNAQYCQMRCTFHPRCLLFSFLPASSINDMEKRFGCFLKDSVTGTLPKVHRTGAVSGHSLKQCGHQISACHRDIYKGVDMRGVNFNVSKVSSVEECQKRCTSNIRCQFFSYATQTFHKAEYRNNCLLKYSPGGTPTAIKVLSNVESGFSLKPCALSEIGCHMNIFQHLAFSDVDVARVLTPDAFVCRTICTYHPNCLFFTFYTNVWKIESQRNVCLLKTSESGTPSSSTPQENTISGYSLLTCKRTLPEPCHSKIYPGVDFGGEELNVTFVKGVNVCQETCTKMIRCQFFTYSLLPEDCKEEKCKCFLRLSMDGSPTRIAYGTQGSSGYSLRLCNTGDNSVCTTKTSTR
Sequence of Human Plasmin (P00747 581-810 limits assumed): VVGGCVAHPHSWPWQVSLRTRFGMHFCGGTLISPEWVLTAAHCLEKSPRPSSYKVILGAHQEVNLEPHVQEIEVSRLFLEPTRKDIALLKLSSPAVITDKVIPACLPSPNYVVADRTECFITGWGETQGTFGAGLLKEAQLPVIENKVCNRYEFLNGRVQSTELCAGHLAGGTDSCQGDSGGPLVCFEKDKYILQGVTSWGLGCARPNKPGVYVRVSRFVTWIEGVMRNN
Sequence of Human Plasmin (P00747 97-580 partner limits assumed): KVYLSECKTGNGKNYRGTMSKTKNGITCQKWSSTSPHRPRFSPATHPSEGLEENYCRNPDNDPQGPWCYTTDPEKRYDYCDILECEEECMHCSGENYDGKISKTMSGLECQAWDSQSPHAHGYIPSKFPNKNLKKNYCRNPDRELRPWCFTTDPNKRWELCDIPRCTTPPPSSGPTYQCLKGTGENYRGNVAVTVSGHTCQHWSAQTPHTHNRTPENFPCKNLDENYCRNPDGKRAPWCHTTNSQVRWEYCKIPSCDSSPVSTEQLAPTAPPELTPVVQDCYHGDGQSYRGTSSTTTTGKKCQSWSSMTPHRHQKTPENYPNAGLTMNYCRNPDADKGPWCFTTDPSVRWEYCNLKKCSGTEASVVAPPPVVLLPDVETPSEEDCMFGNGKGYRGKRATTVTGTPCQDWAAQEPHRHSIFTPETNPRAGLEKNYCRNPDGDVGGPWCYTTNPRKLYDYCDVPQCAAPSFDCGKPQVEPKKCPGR

Row | Compound | inhibition at 1000 µM (Bovine Thrombin) [%] | inhibition at 1000 µM (Human Plasmin) [%] | inhibition at 1000 µM (Human Plasma Kallikrein; at 10^-3 M, in vitro, TAMe) [%] | pIC50 (Trypsin; [1]) | pIC50 (Bovine Thrombin) | inhibition at 1000 µM (Human Cl Esterase) [%] | pIC50 (Human Plasmin) | pIC50 (Human Cl Esterase; in vitro, ATEe) | other results
1 | CCOC(=O)COC(=O)c1ccc(OC(=O)C2CCCc3c(N)cccc32)cc1 (stereo not drawn) [Compound 70] | 22 | 26.2 | 14.1 | 4.28 |  |  |  |  | inhibition at 1000 µM (Human Cl Esterase; at 10^-3 M, in vitro, ATEe): < 3.2%
2 | CCCOC(=O)c1ccc(OC(=O)C2CCCc3c(N)cccc32)cc1 (stereo not drawn) [Compound 68] | < 3.2 | < 3.2 |  | 4.39 |  |  |  |  | inhibition at 1000 µM (Human Cl Esterase; at 10^-3 M, in vitro, ATEe): < 3.2%
3 | COC(=O)c1cccc(OC(=O)C2CCCc3ccc(N)cc32)c1 (stereo not drawn) [Compound 92] |  | < 3.2 | < 3.2 | 4.01 | 3.00 | 27.3 |  |  | 
4 | CCCOC(=O)c1ccc(OC(=O)C2CCCc3c(NC(=N)N)cccc32)cc1 (stereo not drawn) [Compound 123] | 46.7 |  |  |  |  |  | 3.05 | 3.46 | inhibition at 1000 µM (Trypsin; at 10^-3 M, in vitro, TAMe): 45.7%
5 | CN(C)C(=O)COC(=O)Cc1ccc(OC(=O)C2CCCc3ccc(N)cc32)cc1 (stereo not drawn) [Compound 101] |  |  | 34.4 | 3.96 | 3.52 | 31.5 | 4.32 |  | 
6 | N=C(N)Nc1ccc2c(c1)C(C(=O)Oc1cccc3ccccc13)CCC2 (stereo not drawn) [Compound 159] | 46 | 27.6 |  | 3.49 |  |  |  | 3.74 | pIC50 (Human Plasma Kallikrein; in vitro, TAMe): 3.96
7 | NC(=O)COC(=O)c1ccc(OC(=O)C2CCCc3ccc(N)cc32)cc1 (stereo not drawn) [Compound 99] |  |  |  | 4.06 | 4.18 |  | 3.52 | 3.27 | inhibition at 1000 µM (Human Plasma Kallikrein): 17.2%
8 | N=C(N)Nc1ccc2c(c1)C(C(=O)Oc1ccc(OC(=O)C3CCCc4ccc(NC(=N)N)cc43)cc1)CCC2 (stereo not drawn) [Compound 160] |  |  |  |  | 4.27 |  | 4.00 | 3.37 | pIC50 (Human Plasma Kallikrein; in vitro, TAMe): 3.64; inhibition at 1000 µM (Trypsin): 40.5%
9 | N=C(N)Nc1cccc2c1CCCC2C(=O)Oc1ccc(C(=O)OCC(N)=O)cc1 (stereo not drawn) [Compound 126] |  |  | 46.9 | 4.12 | 3.54 | 30.6 | 3.24 |  | 
10 | COC(=O)c1cccc(OC(=O)C2CCCc3c(N)cccc32)c1 (stereo not drawn) [Compound 64] | 20.3 | < 3.2 | 28 | 4.21 |  |  |  |  | inhibition at 1000 µM (Human Cl Esterase; at 10^-3 M, in vitro, ATEe): < 3.2%
11 | CCOC(=O)c1ccc(OC(=O)C2CCCc3ccc(N)cc32)cc1 (stereo not drawn) [Compound 94] | 42.9 | 16.6 | 25 | 4.34 |  |  |  |  | inhibition at 1000 µM (Human Cl Esterase; at 10^-3 M, in vitro, ATEe): 3.2%
12 | CCOC(=O)c1ccc(OC(=O)C2CCCc3c(N)cccc32)cc1.Cl (stereo not drawn) [Compound 66, p-ethoxycarbonylphenyl 5-amino-1,2,3,4-tetrahydro-1-naphthoate hydrochloride] | 16.5 | 4.4 | 19.9 |  |  | < 3.2 |  |  | inhibitory activity on thrombin (Bovine Thrombin): no inhibitory activity; inhibitory activity on plasmin (Human Plasmin): no inhibitory activity; inhibitory activity on Cl-esterase (Human Cl Esterase): no inhibitory activity; inhibitory activity on kallikrein (Human Plasma Kallikrein): no inhibitory activity; pIC50 (Trypsin; in vitro, text of Examples, read-out: ID50, tosylarginine methyl ester hydrolyzing activity of trypsin): 4.06
13 | N=C(N)Nc1cccc2c1CCCC2C(=O)Oc1cccc2c1CCCC2 (stereo not drawn) [Compound 164] | < 3.2 | 46.1 |  | 3.00 |  |  |  | 3.40 | pIC50 (Human Plasma Kallikrein; in vitro, TAMe): 3.00
14 | CN(C)C(=O)COC(=O)c1ccc(OC(=O)C2CCCc3ccc(N)cc32)cc1 (stereo not drawn) [Compound 100] |  |  | 36 | 3.72 | 4.40 | 42 | 4.28 |  | 
15 | CCOC(=O)c1ccc(OC(=O)C2CCCc3c(NC(=N)N)cccc32)cc1 (stereo not drawn) [Compound 121, ethoxycarbonylphenyl 5-guanidino-1,2,3,4-tetrahydro-1-naphthoate hydrochloride] |  |  |  |  |  |  |  |  | pIC50 (Trypsin; Example 6, read-out: ID50, tosylarginine methyl ester hydrolyzing activity of trypsin (unit inferred)): 4.13
16 | N=C(N)Nc1cccc2c1CCCC2C(=O)Oc1cccc2ccccc12 (stereo not drawn) [Compound 131] | < 3.2 | 13.8 |  | 3.08 |  |  |  | 3.39 | pIC50 (Human Plasma Kallikrein; in vitro, TAMe): 3.00
17 | N#Cc1ccc(OC(=O)C2CCCc3c(NC(=N)N)cccc32)cc1 (stereo not drawn) [Compound 162] |  | 49 |  |  | 3.00 | 26.4 |  |  | pIC50 (Human Plasma Kallikrein; in vitro, TAMe): 3.00; inhibition at 1000 µM (Trypsin; at 10^-3 M, in vitro, TAMe): 44.2%
18 | Cl.Nc1ccc2c(c1)C(C(=O)Oc1ccc(Cl)cc1)CCC2 (stereo not drawn) [Compound 83, p-chlorophenyl 7-amino-1,2,3,4-tetrahydro-1-naphthoate hydrochloride] |  |  |  |  |  |  |  |  | inhibitory activity on thrombin (Bovine Thrombin): no inhibitory action; inhibitory activity on plasmin (Human Plasmin): no inhibitory action; inhibitory activity on Cl-esterase (Human Cl Esterase): no inhibitory action; inhibitory activity on kallikrein (Human Plasma Kallikrein): no inhibitory action
19 | CCCOC(=O)c1ccc(OC(=O)C2CCCc3ccc(NC(=N)N)cc32)cc1 (stereo not drawn) [Compound 151] |  |  |  | 4.00 | 4.38 |  | 3.32 | 3.48 | 
20 | CCCOC(=O)c1ccc(OC(=O)C2CCCc3ccc(N)cc32)cc1 (stereo not drawn) [Compound 96] | 25.1 | < 3.2 |  | 4.17 |  |  |  |  | inhibition at 1000 µM (Human Cl Esterase; at 10^-3 M, in vitro, ATEe): < 3.2%
21 | COC(=O)c1ccc(OC(=O)C2CCCc3c(N)cccc32)cc1 (stereo not drawn) [Compound 63] |  | 35 |  | 4.74 | 3.00 | 16.5 |  |  | 
